According to US20230372361A1, “USE OF OXYGENATED CHOLESTEROL SULFATES FOR TREATING INFLAMMATORY CONDITIONS” (Durect Corporation, priority 2020, published 2023):

Experiments:
DNMT1/3a/3b = DNMT1/3a/3b activities, overall statements; format: biochemical; conditions: for effect on enzymatic activities: controls
Protocol: For the DNMT1 activity assay, the substrate solution, 0.001 mg/ml Poly(dI-dC):Poly(dI-dC) in 50 mM Tris-HCl, pH 7.5, 50 mM NaCl, 5 mM EDTA, 5 mM DTT, 1 mM PMSF, 5% glycerol, 0.01% Brij35, 1% DMSO was used. For the DNMT3a/3b activity assay, 0.0075 mg/ml Lambda DNA in 50 mM Tris-HCl, pH 7.5, 50 mM NaCl, 5 mM EDTA, 5 mM DTT, 1 mM PMSF, 5% glycerol, 1% DMSO, was used. The indicated DNMT1, DNMT3a, or DNMT3b was added to the appropriate substrate solution and gently mixed. […] The mixtures were first incubated for 15 min, then ^3H-SAM was added to the reaction mixture to initiate the reaction, and the mixture was incubated for 60 min at 30° C. Following incubation, the reaction mixture was finally transferred to filter-paper for detection of radioactivity counts.

[1] = Metabolite profiling of plasma, urine, feces after intravenous dose (HPLC radiodetection, MS); format: in vivo, rats; conditions: iv 10 mg/kg
Protocol: Plasma pools were made from Group 1 rats at the 0.083, 0.25, 0.5, and 1-hour collection time points.
Urine pools were prepared for Group 2 at 0 to 6 and 6 to 12 hours post-dose. […] Four metabolites present at <10% relative observed intensity in at least 1 sample were M7 (<5% relative observed intensity), M16 (<3% relative observed intensity), M19 (<6% relative observed intensity), and M25 (<5% relative observed intensity).
Feces pools were prepared for Group 2 at 0 to 12, 12 to 24, and 24 to 48 hours post-dose.

[2] = Metabolite profiling of plasma and feces after oral dose (radio-HPLC, HPLC/MS); parameters: species or system rats; conditions: Sprague Dawley, rat, in vivo, 75 mg/kg
Protocol: Radiolabeled components in plasma and feces extracts were profiled and identified using radio-high performance liquid chromatography (HPLC) and high performance liquid chromatography/mass spectrometry (HPLC/MS) methods.
Plasma pools were prepared for Group 1 (75 mg/kg, [14C]-25HC3S) samples collected at 2, 4, and 6 hours post-dose. […] One metabolite M29 was identified as 25-hydroxycholesterol with 37% ROI and a concentration of 1233 ng-equiv./g.
Feces pools were prepared for Group 2 (75 mg/kg, [^14C]-25HC3S) samples collected from 0 to 24, 24 to 48, 48 to 72, 72 to 96, 96 to 120, 120 to 144, and 144 to 168 hours post-dose. A total of eleven metabolites were identified. None of the metabolites were present at ≥5% of dose. Metabolites present at 2-5% of dose were M1(4.5% of total dose and 1%-69% ROI), M3 (4.6% of total dose and 1%-44% ROI), M4 (2.0% of total dose and 0%-10% ROI), M8 (3.1% of total dose and 1%-46% ROI), M29 (1.9% of total dose and 0%-2% ROI), and M30 (3.3% of total dose and 0%-5% ROI).

Compound	effect on enzymatic activities (DNMT1/3a/3b)	detection in plasma, urine, or feces samples [1]	further results
CC(C)CCC[C@@H](C)[C@H]1CC[C@H]2[C@@H]3CC=C4C[C@@H](O)CC[C@]4(C)[C@H]3CC[C@]12C [Xol, Cholesterol]	did not significantly affect enzymatic activities	–	–
CC(C)CCC[C@@H](C)[C@H]1CC[C@H]2[C@@H]3CC=C4C[C@@H](OS(=O)(=O)O)CC[C@]4(C)[C@H]3CC[C@]12C [Xol3S, 5-cholesten-3β-ol, 3-sulfate]	did not significantly affect enzymatic activities	–	–
C[C@H](CCCC(C)(C)O)[C@H]1CC[C@H]2[C@@H]3CC=C4C[C@@H](O)CC[C@]4(C)[C@H]3CC[C@]12C [25HC, 25-Hydroxycholesterol, reference compound]	–	Neither desmosterol sulfate nor 25-hydroxycholesterol was detected	–
desmosterol sulfate	–	Neither desmosterol sulfate nor 25-hydroxycholesterol was detected	–
C[C@H](CCCC(C)(C)O)[C@H]1CC[C@H]2[C@@H]3CC=C4C[C@@H](O)CC[C@]4(C)[C@H]3CC[C@]12C [M29, 25-hydroxycholesterol]	–	–	ROI in feces [2]: 0-2%
C[C@@H](CO)CCC[C@@H](C)[C@H]1CC[C@H]2[C@@H]3CC=C4C[C@@H](O)CC[C@]4(C)[C@H]3CC[C@]12C [27HC, 27-Hydroxycholesterol]	–	–	effect on other enzymes (than DNMT-1) (DNMT1/3a/3b): had no effect on other enzymes
